Measured values taken from patent US8906946B2, “TRPM8 receptor antagonists” (Dompe' S.p.A., priority 2011, dated 2014).
Several values for one entry are separate records, joined by “and”; a condition that tells them apart may be missing. Equal entries are not always repeated.

Columns and labels:
Plasma stability, human = assay type: in vitro ADME
CYP3A4 = CYP3A4 (Homo sapiens, UniProt P08684); assay: CYP inhibition 3A4; assay type: in vitro ADME; settings: 3A4, 10 μM
human TRPM8 = human TRPM8 (Homo sapiens, UniProt Q7Z2W7); assay: High-throughput FLIPR TETRA calcium fluorescence assay for TRPM8 antagonists in HEK293/hTRPM8 cells; assay type: cell-based; parameters: expressed in transfected cells; settings: agonist Cooling Agent 10 at EC80, Ca2+ fluorescence
Source text: A functional cell-based assay for the identification of TRPM8 receptor antagonists, optimised to allow high throughput screening at FLIPR^TETRA, was developed in HEK293 cells by stable pure clone selection and functional characterization with a fluorescent calcium sensitive dye.
TRPM8 was cloned into the multiple clonig site of pcDNA3 mammalian expression vector; the obtained construct pcDNA3/hTRPM8 was fully sequence verified and used for the transfection of HEK293 cell line. HEK293 cells stably transfected with TRPM8 gene were maintained in Minimum essential medium. The cells were transfected with the pcDNA3/hTRPM8 vector by electroporation and then selected with medium containing 0.8 mg/ml G418 for 10-15 days.
The following commercial compounds were used as ligands: • Activator: Cooling Agent 10 (Takasago CAS N. 87061-04-9) • Blocker: Capsazepine (SIGMA cat #D—5879)
The experimental activities were performed using FLIPR^TETRA instruments.
HEK293 cells stably transfected with TRPM8 gene were maintained in Minimum essential medium.
The TRPM8 cell line was analysed for the response to a library of compounds using a Ca^2+ mobilization-dependent fluorescence signal in 384 wells microtiter plate format. The analysis was performed using the FLIPR^TETRA (MDC) with the ICCD Camera.
The execution of the assay involved the use of three microtiter plates:
1. Assay plate, containing cells loaded with dye and prepared as follows:
Cells were seeded at 15000 c/well in Poly-D-Lysine coated 384 wells Microtiter Plates in complete medium (25 μl/well).
24 h after seeding, the cell plates were washed with Tyrode assay buffer by the Microplate Washer and 10 μL of Tyrode assay buffer was left in each well.
Cells were then loaded with 10 μL/well of the Fluo-4 NW dye solution by CyBi®-Well pipettor. Each bottle of Fluo4-NW dye (Molecular Probes cat. #F36206, component A) was re-suspended in 8 mL of Tyrode assay buffer and supplemented with 100 μL of water-soluble probenecid (MolecularProbes cat.#F36206, component B).
Dye loaded cell plates were incubated for 1 h at room temperature.
2. Compound Dilution Plate (FIG. 1), containing diluted test compounds, formulated as follows: • Column 1: wells containing Assay Buffer plus DMSO 0.5% final • Column 2: wells alternating Max Signal Control in first injection (Maximum Response: Cooling Agent 10 at EC100, 100 μM) and Min Signal Control in first injection (Assay buffer plus 0.5% DMSO final); • Columns 3-22: wells containing Assay Buffer plus 0.5% DMSO final. To these wells the compounds to be tested were added at 3× concentration. • Column 23: alternating wells of Max Signal Control in second injection (Assay buffer) and Min Signal Control in second injection (Antagonist Capsazepine IC100, 50 μM) in Assay buffer plus 0.5% DMSO final; • Column 24: wells containing Capsazepine (Antagonist) at 8 concentrations in duplicate at final concentrations of […] in Assay buffer plus 0.5% DMSO final.
3. Activator Plate (FIG. 2), containing agonist Cooling Agent 10 at EC80, formulated as follows: • Column 1: Cooling Agent 10 (Agonist) at 8 concentrations dose response in duplicate at final concentrations of […] in Assay buffer; • Columns 2-24: Cooling Agent 10 (Agonist) at EC80 (3 fold concentrated, 20 μM final) in Assay buffer.
The test was carried out according to a procedure comprising the following steps: • 1. The samples contained in the wells of the Compound Plate were added to the corresponding wells of the Assay Plate by the FLIPR^TETRA, thus resulting in the addition in Columns 3-22 of the test compounds at 3× concentration to the cells of the assay plates. No mixing was performed in the assay wells and the signal of the emitted fluorescence was recorded for 300 seconds. • 2.

[1] = system: rhythmic bladder contractions; assay: Isovolumetric bladder model, intravesical protocol; assay type: in vivo, rat
Experimental: Female rats were anesthetized with urethane. Ureters were ligated and sectioned. A catheter was inserted through the urinary meatus into the bladder before urethral ligature. Two protocols for testing compounds were used: intravenous (i.v.) or intravesical (i.ves.) administration.
In the second protocol, the bladder was filled first 3 times every 5 min with 100 μL of a solution of solutol/NMP […] containing 0.756 mg of compound (1) or with 100 μL of vehicle, then with 100 μL of saline every 5 min until the occurrence of RBC. A maximal volume of 3 mL was infused. The threshold volume inducing RBC in each group was compared. […] Furthermore, the threshold volume (TV) in the group treated with compound (1) reached 3 mL without RBC occurrence whereas, in the vehicle group, RBC occurred in all rats with a mean volume of 0.7±0.09 ml.

[2] = Plasma Protein Binding, rat; assay type: in vitro ADME
hERG = hERG (Homo sapiens, UniProt Q12809); assay: hERG binding
[3] = Plasma Protein Binding, human; assay type: in vitro ADME

Sequence of human TRPM8 (Q7Z2W7 whole entry): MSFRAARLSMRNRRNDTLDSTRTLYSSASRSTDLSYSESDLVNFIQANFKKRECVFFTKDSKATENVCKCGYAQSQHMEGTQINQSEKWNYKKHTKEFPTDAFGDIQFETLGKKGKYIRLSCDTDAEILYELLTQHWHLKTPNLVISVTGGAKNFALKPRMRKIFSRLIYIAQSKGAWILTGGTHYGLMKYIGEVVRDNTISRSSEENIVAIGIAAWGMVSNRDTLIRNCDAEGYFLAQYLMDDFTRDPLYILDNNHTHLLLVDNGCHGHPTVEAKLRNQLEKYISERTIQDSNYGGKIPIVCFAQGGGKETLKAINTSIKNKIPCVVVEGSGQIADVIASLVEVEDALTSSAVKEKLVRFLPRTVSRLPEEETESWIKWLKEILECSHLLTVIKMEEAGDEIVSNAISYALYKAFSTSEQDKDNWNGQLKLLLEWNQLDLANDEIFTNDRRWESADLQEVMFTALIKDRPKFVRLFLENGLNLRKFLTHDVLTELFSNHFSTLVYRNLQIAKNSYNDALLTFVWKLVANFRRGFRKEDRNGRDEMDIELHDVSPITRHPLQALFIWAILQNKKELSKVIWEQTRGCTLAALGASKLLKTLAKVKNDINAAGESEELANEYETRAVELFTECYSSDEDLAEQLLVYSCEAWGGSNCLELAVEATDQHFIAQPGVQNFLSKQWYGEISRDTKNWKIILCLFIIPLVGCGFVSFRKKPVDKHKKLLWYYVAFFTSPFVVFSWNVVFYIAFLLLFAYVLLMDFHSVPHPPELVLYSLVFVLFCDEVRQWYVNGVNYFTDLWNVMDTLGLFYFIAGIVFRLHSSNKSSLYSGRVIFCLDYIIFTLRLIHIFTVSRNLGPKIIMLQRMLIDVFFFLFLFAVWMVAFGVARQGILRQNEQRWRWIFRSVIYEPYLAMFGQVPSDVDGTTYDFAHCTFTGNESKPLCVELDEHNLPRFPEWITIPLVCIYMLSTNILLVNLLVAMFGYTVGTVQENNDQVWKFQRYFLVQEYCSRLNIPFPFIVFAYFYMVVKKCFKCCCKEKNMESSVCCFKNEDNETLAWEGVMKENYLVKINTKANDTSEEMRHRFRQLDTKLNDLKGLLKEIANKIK
Sequence of hERG (Q12809 whole entry): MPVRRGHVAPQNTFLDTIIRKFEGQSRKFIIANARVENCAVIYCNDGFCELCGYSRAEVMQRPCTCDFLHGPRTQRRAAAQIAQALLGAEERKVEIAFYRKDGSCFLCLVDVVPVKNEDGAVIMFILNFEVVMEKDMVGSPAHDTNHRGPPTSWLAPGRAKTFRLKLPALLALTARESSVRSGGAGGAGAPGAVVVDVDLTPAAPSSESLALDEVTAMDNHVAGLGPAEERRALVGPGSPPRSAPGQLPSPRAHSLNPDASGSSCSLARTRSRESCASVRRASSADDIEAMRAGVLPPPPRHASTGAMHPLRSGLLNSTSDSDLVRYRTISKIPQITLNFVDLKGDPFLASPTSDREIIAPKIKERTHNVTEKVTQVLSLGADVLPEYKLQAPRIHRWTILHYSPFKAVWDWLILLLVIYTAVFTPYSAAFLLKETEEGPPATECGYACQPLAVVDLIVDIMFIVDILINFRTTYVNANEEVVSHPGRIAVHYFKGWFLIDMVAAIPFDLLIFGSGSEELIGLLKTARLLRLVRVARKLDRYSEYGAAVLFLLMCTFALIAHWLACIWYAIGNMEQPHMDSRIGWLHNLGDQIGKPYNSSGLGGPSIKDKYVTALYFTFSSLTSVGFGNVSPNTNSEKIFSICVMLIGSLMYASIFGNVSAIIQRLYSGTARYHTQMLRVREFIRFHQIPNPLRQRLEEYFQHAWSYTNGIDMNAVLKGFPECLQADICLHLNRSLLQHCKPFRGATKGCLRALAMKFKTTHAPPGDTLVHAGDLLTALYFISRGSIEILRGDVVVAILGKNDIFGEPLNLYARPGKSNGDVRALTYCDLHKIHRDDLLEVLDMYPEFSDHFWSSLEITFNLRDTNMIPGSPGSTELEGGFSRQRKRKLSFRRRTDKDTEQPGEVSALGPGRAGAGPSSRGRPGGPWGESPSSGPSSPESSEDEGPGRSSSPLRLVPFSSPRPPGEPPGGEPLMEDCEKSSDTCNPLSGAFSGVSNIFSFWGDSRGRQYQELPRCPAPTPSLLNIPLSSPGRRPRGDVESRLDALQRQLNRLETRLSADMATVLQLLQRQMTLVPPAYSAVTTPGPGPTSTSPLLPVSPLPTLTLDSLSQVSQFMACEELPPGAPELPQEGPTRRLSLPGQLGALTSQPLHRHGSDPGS
Sequence of CYP3A4 (P08684 whole entry): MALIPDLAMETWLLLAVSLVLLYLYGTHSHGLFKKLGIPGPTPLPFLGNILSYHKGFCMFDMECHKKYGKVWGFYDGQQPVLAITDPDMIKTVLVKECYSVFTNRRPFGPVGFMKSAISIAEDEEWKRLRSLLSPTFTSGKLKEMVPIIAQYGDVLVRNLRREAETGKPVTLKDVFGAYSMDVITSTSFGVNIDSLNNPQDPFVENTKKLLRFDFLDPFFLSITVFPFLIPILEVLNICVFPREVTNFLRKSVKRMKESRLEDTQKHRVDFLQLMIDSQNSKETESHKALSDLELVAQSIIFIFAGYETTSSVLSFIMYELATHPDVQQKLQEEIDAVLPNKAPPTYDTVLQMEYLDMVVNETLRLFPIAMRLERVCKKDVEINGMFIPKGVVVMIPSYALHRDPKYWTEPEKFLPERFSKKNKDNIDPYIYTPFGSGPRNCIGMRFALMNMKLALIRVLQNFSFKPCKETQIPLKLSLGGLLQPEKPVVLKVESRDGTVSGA

Plasma stability (% remaining) @10 μM (Plasma stability, human): 96%
inhibition at 10 µM (CYP3A4): 33.3%
IC50 (human TRPM8): < 10000 nM and 70 nM
fraction unbound at 10 μM [2]: 0.03
fraction unbound at 10 μM [3]: 0.02
SMILES: Cl.Clc1c(OCCNCc2ccco2)ccc2ccccc12 [Compound 1, 2-[(1-chloronaphthalen-2-yl)oxy]-N-(furan-2-ylmethyl)ethanaminium chloride]
effect on Amplitude of Micturition (AM) [1]: did not change AM
effect on rhythmic bladder contractions (RBC) ([1]; 3 x 100 μL containing 0.756 mg): completely abolished RBC
threshold volume (TV) inducing RBC ([1]; maximal volume infused 3 mL, no RBC occurrence): > 3 mL
hERG binding @10 μM (hERG): No effect
